In patent publication US20220324770A1, “NITRIFICATION INHIBITORS” (The University of Melbourne, priority 2019, published 2022):

Columns and labels:
Dahlen soil = assay: Soil thin-layer chromatography (TLC) leaching study, Dahlen soil; type: physicochemical
Protocol: (§1) TLC plates were prepared based on methods described in the literature (Helling, C. S., Turner, B. C, Science 1968, 162, 562-563; Mohammad, A., Jabeen, N., JPC—Journal of Planar Chromatography—Modern TLC 2003, 16, 137-143). Masking tape (3 layers, ˜[…] total thickness) was used to outline three columns (4 cm W×12 cm H) on a glass TLC plate (20×20 cm). A slurry of freshly ground soil in distilled H2O (˜2:3 m/v) was then poured onto the prepared plate and spread evenly using a glass rod. Once even, the plate was dried overnight in an oven at 35° C. Careful removal of the masking tape afforded the TLC plate ready for sample application.
(§2) Samples of DMP (the active core of DMPP) or Compound 16 (˜1 mg) dissolved in acetone (100 μL) were pipetted in a straight line across the soil, 2 cm above the base of the plate. Application band thickness was kept under 0.5 cm. After 30 mins of drying time, the TLC plate was developed inside a glass developing chamber with distilled H2O (depth of 0.5 cm) until the solvent front reached the top of the soil (˜1 hr). […] The plate was then allowed to air dry overnight.
(§3) Once dry, the plate was divided into six horizontal bands corresponding to Rf values of: (1) <0.05 (baseline), (2) 0.05 to 0.25, (3) 0.25 to 0.45, (4) 0.45 to 0.65, (5) 0.65 to 0.85, and (6) 0.85 to 1. In sequence, soil in each band was carefully scraped off the glass backing and collected in vials. Special care was taken to avoid cross-contamination between soil of different bands, and the separate channels.
(§4) Individual soil bands collected from the TLC plate were extracted as follows: • 1. Addition of an aqueous solution of CaCl2/MgSO4 (0.01M and 0.45M respectively, 2 mL). • 2. Sonication for 5 minutes then manual shaking for 30 seconds. • 3. Addition of methyl-tert-butyl ether (MTBE, 2 mL) then manual shaking for 30 seconds. • 4. Sonication for 10 minutes then manual shaking for 30 seconds. • 5. Rested until soil began to settle, then frozen overnight at −20° C. • 6. After partial defrosting, the ethereal extract was filtered through nylon syringe filters (FilterBio®, 13 mm diameter, 0.45 µm pore size).
(§5) The filtered ethereal extracts (450 μL) were spiked with 50 μL of a standard solution of either cyclododecanone in MTBE (1.97 mg/mL, for DMP-treated samples) or cyclooctanone in MTBE (6.37 mg/mL, for 16-treated samples). Samples were then directly analysed by GC-MS (method: 70° C. for 5 mins, then ramp 10° C./min to 250° C., hold at 250° C. for 17 mins [total run time=40 minutes]) to analyse the presence or absence of the inhibitor in each soil band.
(§6) GC-MS peak areas calculated for the standards cyclooctanone (Rt=9.1 mins) and cyclododecanone (Rt=15.8 mins) were compared to those calculated for Compound 16 (Rt=13.9 mins) and DMP (Rt=7.6 mins) respectively, for each soil sample extract where inhibitor was detected as follows:
(§7) As each treatment was run in triplicate, mean values are reported for detected inhibitor percentages for each Rf band, with errors presented as the standard deviation.
(§8) Samples of the DCD (˜1 mg) dissolved in methanol (300 μL) were pipetted in a straight line across the soil, 2 cm above the base of the plate. Application band thickness was kept under 0.5 cm. After 30 mins of drying time, the TLC plate was developed inside a glass developing chamber in distilled H2O (depth of 0.5 cm) until the solvent front reached the top of the soil (˜1 hr). […] The plate was then allowed to air dry overnight.
(§9) Individual soil bands collected from the TLC plate were extracted as follows: • 1. Addition of methanol (2 mL). • 2. Manual shaking for 30 seconds following sonication for 15 minutes. • 3. Once soil began to settle, the methanolic extract was filtered through nylon syringe filters (FilterBio®, 13 mm diameter, 0.45 µm pore size). • 4. 300 μL of the methanolic extracts were evaporated under nitrogen flow, and then the residues was taken up in ultrapure acetonitrile (1 mL). • 5. […]

South Johnstone soil = assay: Soil thin-layer chromatography (TLC) leaching study, South Johnstone soil; type: physicochemical; conditions: for Detected Inhibitor (%): South Johnstone soil TLC
Protocol: as §1, §2, §3, §4, §5, §6, §7, §8, §9

[1] = temperature of 35° C.; cited from earlier work

| SMILES | Rf range in which the majority of the inhibitor was detected (Dahlen soil; Dahlen soil TLC) | Detected Inhibitor (%) (Dahlen soil; Dahlen soil TLC, Rf 0.05-0.25) | Detected Inhibitor (%) (Dahlen soil; Dahlen soil TLC, Rf 0.25-0.45) | Detected Inhibitor (%) (Dahlen soil; Dahlen soil TLC, Rf 0.45-0.65) | Detected Inhibitor (%) (Dahlen soil; Dahlen soil TLC, Rf 0.65-0.85) | mobility in soil TLC (Dahlen soil; neutral Dahlen soil) | leachability (conclusion) (Dahlen soil; neutral soils) | Detected Inhibitor (%) (South Johnstone soil; Rf 0.05-0.25) | Detected Inhibitor (%) (South Johnstone soil; Rf 0.25-0.45) | Detected Inhibitor (%) (South Johnstone soil; Rf 0.45-0.65) | Detected Inhibitor (%) (South Johnstone soil; Rf 0.65-0.85) | Detected Inhibitor (%) (South Johnstone soil; Rf 0.85-1) | leaching tendency (conclusion) (South Johnstone soil; acidic soils) | time DMPP remains effective [1] |
| --- | --- | --- | --- | --- | --- | --- | --- | --- | --- | --- | --- | --- | --- | --- |
| CCCc1cn(CCC)nn1 [Compound 16, 1,4-dipropyl-1H-1,2,3-triazole] | 0.25-0.45 | 3 ± 4 | 58 ± 14 | 38 ± 16 | 1 ± 1 | reduced mobility compared to DMP | lower leachability than DMP and DCD | 1 ± 1 | 5 ± 6 | 34 ± 5 | 49 ± 9 | 11 ± 3 | lower-to-similar leaching tendencies to DCD | – |
| Cc1c[nH]nc1C.O=P(O)(O)O [DMPP, 3,4-dimethylpyrazole phosphate, reference compound] | – | – | – | – | – | – | – | – | – | – | – | – | – | only one week |
